US3952017A, “Tricyclic compounds” (Hoffmann-La Roche Inc., priority 1968, dated 1976)
Structures can show the parent of a compound that is named as a salt. Where two headings read alike, the source gives them in different places.

Key:
salivation in rabbits = assay: anticholinergic action: inhibition of pilocarpine-increased salivation in rabbits under light urethane narcosis; assay type: in vivo; details: for inhibition at 3 mg/kg: Oryctolagus cuniculus, 3 mg/kg i.v., pilocarpine 5 mg/kg s.c.
Procedure: The low anticholinergic action can be shown by the lack of salivation inhibition in rabbits: The salivation in rabbits under light urethane narcosis was increased by pilocarpine injection (5 mg/kg. s.c.) and the amount of saliva was measured at 5-minute intervals. The inhibition of salivation is expressed as a percentage based upon the salivation of animals which only received pilocarpine.

rats = assay: antidepressive action: suppression of ptosis, seeking behavior, motility and sensitivity to stimulus in rats given 2-hydroxy-2-ethyl-3-isobutyl-9,10-dimethoxy-1,2,3,4,6,7-hexahydro-11bH-benzo[a,d]quinolizine hydrochloride; assay type: in vivo; details: 3 x 50 mg/kg p.o.; for Activity in % compared to Amitriptyline: Amitriptyline 100%
Procedure: The same dosage was administered to a control group of 5 non-pretreated rats. The ratings include central and peripheral symptoms, which are characteristic for tricyclic antidepressants [cf. Ann. N.Y. Acad. Sci. 96, 279 (1962)]. […] These changes were recorded according to a rating scheme which utilized numbers. […] The stated percentages are compared with the values for Amitriptyline* (Amitriptyline 100%).

mice = assay: acute toxicity in mice (24-hour values); details: mouse, in vivo
Text: (§1) The low toxicity of the compounds of the invention can be illustrated by the acute toxicity of 1-methyl-10,11-dihydro-5-(3-dimethylaminopropyl)-5H-dibenzo[a,d]cycloheptene hydrochloride in mice (24-hour values): […]

[1] = acute toxicity in mice (24-hour values); details: mouse, in vivo, mice, 24-hour values
Text: as §1

Row | Structure (SMILES) | inhibition at 3 mg/kg (salivation in rabbits) [%] | Activity in % compared to Amitriptyline (rats) [%] | other results
1 | CNCCCC1c2ccccc2CCc2c(C)cccc21.Cl (stereo not shown) [1-Methyl-10,11-dihydro-5-(3-methylaminopropyl)-5H-dibenzo[a,d]cycloheptene hydrochloride] | 40 | 180 | 
2 | Cc1cccc2c1C=Cc1ccccc1C2=CCC[N+](C)(C)[O-] [1-methyl-5-(3-dimethylaminopropylidene)-5H-dibenzo[a,d]cycloheptene N-oxide hydrochloride] | 14 | 140 | 
3 | Cc1cccc2c1C=Cc1ccccc1C2=CCC[N+](C)(C)[O-] [1-methyl-5-(3-dimethylaminopropylidene)-5H-dibenzo[a,d]cycloheptene N-oxide] |  |  | toxicity (in words) (mice): reduced toxicity; salivation inhibition / anticholinergic action (in words) (salivation in rabbits): absence of substantial anticholinergic action; antidepressive action (in words) (rats): excellent antidepressive action; antidepressive action (in words) (rats; listed as 1-methyl-5-(3-dimethylaminopropylidene)-5-H-dibenzo[a,d]cyclohehptene N-oxide): considerably increased antidepressive action
4 | Cc1cccc2c1C=Cc1ccccc1C2=CCCN(C)C.Cl [1-methyl-5-(3-dimethylaminopropylidene)-5H-dibenzo[a,d]cycloheptene hydrochloride] | 60 | 130 | 
5 | CNCCC=C1c2ccccc2C=Cc2c(C)cccc21.Cl [1-methyl-5-(3-methylaminopropylidene)-5H-dibenzo[a,d]cycloheptene hydrochloride] | 60 | 230 | 
6 | Cc1cccc2c1CCc1ccccc1C2CCCN(C)C.Cl (stereo not shown) [1-methyl-10,11-dihydro-5-(3-dimethylaminopropyl)-5H-dibenzo[a,d]cycloheptene hydrochloride] | 50 | 180 | LD50 at 24 h ([1]; iv, i.v., read-out: LD50 i.v.): 25 to 50 mg/kg; LD50 at 24 h ([1]; po, p.o., read-out: LD50 p.o.): 300 to 600 mg/kg
7 | Cc1cccc2c1CCc1ccccc1C2=CCCN(C)C.Cl [1-methyl-10,11-dihydro-5-(3-dimethylaminopropylidene)-5H-dibenzo[a,d]cycloheptene hydrochloride] | 50 | 220 | 
8 | CNCCC=C1c2ccccc2CCc2c(C)cccc21.Cl [1-methyl-10,11-dihydro-5-(3-methylaminopropylidene)-5H-dibenzo[a,d]cycloheptene hydrochloride] | 50 | 140 | 
9 | CN(C)CCC=C1c2ccccc2CCc2ccccc21 [Amitriptyline, 5-(3-dimethylaminopropylidene)-dibenzo[a,d][1,4] cycloheptadiene, reference compound] | 96 | 100 | 
